Source: patent US20040034216A1, “3-Nitrogen-6,7-dioxygen steroids and uses related thereto” (priority 2003, published 2004)

Tests used:
[1] = Pharmacokinetic profile in the rat; type: in vivo
[2] = Pharmacokinetic profile in the monkey; type: in vivo
[3] = test system: sensitized Brown Norway rats; test: Ovalbumin-induced accumulation of inflammatory cells in lung lavage fluid (allergen-induced lung inflammation); type: in vivo, rat; conditions: p.o.
Protocol: The ability of a compound to inhibit the allergen-induced accumulation of inflammatory cells such as eosinophils and neutrophils in the lavage fluid obtained from sensitized animals is indicative of that compound's anti-asthma activity. […] The test is conducted as follows.
Male Brown Norway rats are sensitized to ovalbumin by single intraperitoneal injection of 1 mg ovalbumin adsorbed to 100 mg […] (alum) in 1 ml sterile saline (saline control rats receive only sterile saline) on day 1, and allowed to sensitize until day 21. […] Rats are challenged with 0.5% ovalbumin in saline generated using a Devillbis nebulizer for 60 min on day 21.
Forty-eight hrs after challenge, animals are sacrificed with an overdose of intraperitoneally-delivered sodium pentobarbitol and the lungs are lavaged with cold 2×7 ml phosphate buffered saline. The recovered lavage fluid is placed on ice. The bronchoalveolar lavage fluid is centrifuged and the supernatant removed. The pellet is resuspended in phosphate buffered saline at 4° C. Cytospins are prepared and stained for differentiation and enumeration of cell types.
Test compound was administered in 300 μl corn oil (Tables 7 and 8) or water (Table 9), which were used as vehicles. Control animals received 300 μl corn oil or water alone, i.e., no drug. […] A negative value in Table 7, 8, or 9 indicates an exacerbation of the effect over the control animal.

[4] = test system: Jurkat clone E6.1 cells; test: Antigen-induced calcium flux in anti-CD3 stimulated Jurkat cells (Fura 2AM); type: cell-based; conditions: Homo sapiens, Jurkat, read-out: Calcium (% inhibition at 20 μM), 20 μM; anti-CD3 mAb stimulated Jurkat clone E6.1 cells
Text: Elevation of cytoplasmic calcium concentration is a common and crucial event which follows the activation of many types of cell surface receptors. Increases in intracellular calcium that occur following agonist activation of inositol lipid hydrolysis are the results of calcium release from the endoplasmic reticulum and the influx of calcium through the plasma membrane. Increases in cytosolic calcium concentration are involved in many important cellular responses in the inflammatory process including adhesion, motility, gene expression, proliferation, and degranulation. Changes in intracellular calcium concentrations can affect both short and long term cellular responses. An assay method to evaluate a test compound's impact on calcium flux is provided as follows.
The resulting supernatants are discarded and each pellet is washed in 10 mL HBSS. Cell suspensions are accumulated and centrifuged for 5 minutes at 900 RPM to form a cell pellet. The resulting supernatant is discarded and the pellet is resuspended in HBSS at 1×10^7cells/mL. The cell suspension is transferred to a 20 mm petri dish and incubated at 37° C., 5% CO2 for 20 minutes.
One volume of Fura 2AM is mixed to one volume of detergent Pluronic F127. Cells are labeled with 4 μL of probe solution to each mL of cell suspension. The petri dish is wrapped in aluminum foil to protect from light and placed on a plate shaker for 30 minutes at room temperature.
The following steps are done in the laminar flow hood with the fluorescent lights turned off. The petri dish is removed from the shaker and the labeled cell suspension is transferred to a 15 mL conical tube and washed twice with HBSS as above. The cell pellet is resuspended in 12 mL HBSS and left wrapped in foil for 30 minutes at room temperature. The labeled cell suspension is aliquoted (100 μL/well) into a Dynex 96 well white opaque tissue culture plate. […] Selected compounds were tested for dose related activity. Test samples and activator (anti-CD3 mAb at final concentration of 4 μg/mL, PharMingen) are added manually (50 μL), such that the minimum time to acquire the first data point after stimulation is approximately 30 seconds. The calcium influx response to anti-CD3 mAb is measured as an “end point” assay. The entire plate is read in 100 seconds using a kinetic of 1 second per well.
The plate is read before the addition of anti-CD3 to monitor non-specific effect of samples/drugs. Fluorescence emission is measured at 510 nm with excitation alternating between 340 and 380 every second using an excitation/emission filter pair. Data from these dual wavelengths are represented as a ratio of 2 excitations wavelengths. This ratio is independent of intracellular dye and cell concentrations, enabling real comparison between experiments.

[5] = Metabolic stability in human liver S9 fractions; type: in vitro ADME
Text: The therapeutic effectiveness of a test compound can be often directly related to its metabolic stability in vivo. The majority of known, marketed drugs are metabolized by a group of enzymes known as P450 enzymes. The S9 fraction of human liver contains all the P450 enzymes and also cytoplasmic enzymes that may be involved in the metabolism of new chemical entities. Metabolism in vitro using human S9 fractions is a standard assay to evaluate relative metabolic stability of new compounds. The test is performed as follows.
Reagents are thawed on ice and combined to make up a Master Mix as follows: Potassium phosphate (100 mM, pH 7), G6P (0.25 mM), G6PDH (2 U/ml), NADPH (1 mM), UDP (0.25 mM), APPS (0.25 mM), and S9 fraction (2 mg/ml). A volume of 498 μl of the Master mix is dispensed into each microcentrifuge tube. A volume of 2 μl of 2.5 mM test compound (final concentration of 10 μM) is dispensed into the center of the lid of the appropriate tube, and the lids gently closed to prevent mixing. Synchronous combination of test compound and master mix is achieved by simultaneous ten times inversion of the tubes, which are then incubated at 37° C. and shaken at 150 rpm for the appropriate incubation times. While incubation is in progress, all 0 time samples are mixed individually by three times inversion followed by the immediate addition of 500 μl ice cold acetonitrile with three times inversion to stop the reaction. Immediately after each 15 minutes and 30 minutes incubation is complete, ice cold acetonitrile is added to each tube and the tubes mixed by three times inversion. All sample tubes are incubated at −80° C. for a minimum of 15 minutes, thawed and remixed by inversion. Aliquots of 650 μl are transferred to Chromatographic Specialties micro-system spin filter system tubes (0.2 μm nylon membrane, C618505) and centrifuged at 13,000 rpm for 48 seconds. The sample filtrates are stored at −80° C.
Sample filtrates are analyzed on LCMS, and percent remaining after 15 and 30 minute incubation is calculated relative to the 0 minute incubation.
The metabolic stability of various compounds are summarized in Table 10 as the percent remaining after 15 or 30 minutes incubation with human liver S9 fractions.

[6] = test system: Rat Mast Cell Line (RBL-2H3); test: Antigen-induced release of hexosaminidase from a rat mast cell line (RBL-2H3); type: cell-based; conditions: Rattus norvegicus, RBL-2H3, inhibition of antigen (DNP-HSA)-induced hexosaminidase release, tested at 0.3, 3, 10 and 30 μM, read-out: Hex IC50
Protocol: The anti-allergic effects of a compound of the present invention was evaluated by measuring its effect on antigen-induced secretion of hexosaminidase from a passively sensitized rat mast cell line. The ability of a test compound to inhibit the release of mast cell granule contents, e.g., histamine and hexosaminidase, is indicative of the anti-allergy and/or anti-asthma activity of the compound. Hexosaminidase is released from the mast cell granule along with histamine and other mediators during antigen challenge. The test is performed as follows.
RBL-2H3 cells are grown in culture and passively sensitized for 1 hour at 37° C. to dinitrophenol (DNP) using anti-human-DNP (IgE). Cells are incubated with test compound for 30 minutes at 37° C. and stimulated with 0.5 μg/ml DNP-HSA (antigen) for 30 minutes. Aliquots of the supernatant are removed and used to measure the amount of hexosaminidase released during challenge with the antigen. The amount of hexosaminidase present in the supernatant is determined colorimetrically by monitoring the enzymatic metabolism of p-nitrophenyl-N-acetyl-β-D-glucosaminide (p-NAG) over a period of 60 minutes at 405 nm. The effect of each test compound is determined as a percentage of the antigen-induced response (minus background release) obtained in the presence of DMSO alone. These values are used to determine the degrees of inhibition of antigen-induced hexosaminidase release from the cells.

[7] = physchem; conditions: water
[8] = 5 mg/kg/day for 4 days, corn oil, lung lavage fluid, relative to control animals
[9] = 0.1 mg/kg, 4 days qd, water vehicle
[10] = 0.3 mg/kg, 4 days qd, water vehicle
[11] = 1 mg/kg, 4 days qd, water vehicle

C/C=C1/CCC2C3C(CC[C@]12C)[C@@]1(C)CC[C@H](N)CC1[C@@H](O)[C@@H]3O (some centres unmarked) [Compound 28]
maximal concentration in plasma [1]: predictable and linear
maximal concentration in plasma [2]: predictable and linear
% inhibition of eosinophils [3, 8]: 85%
inhibition at 20 µM [4]: 29%
remains unchanged after 15 and even 30 minutes incubation with human S9 fractions ([5]; human, s9, 0.5 h, 10 μM, pH 7): 100%
IC50 [6]: 6.8 µM

C/C=C1/CCC2C3C(CC[C@]12C)[C@@]1(C)CC[C@H](N)CC1[C@@H](O)[C@@H]3O (some centres unmarked) [Compound 83]
% inhibition of eosinophils [3, 8]: 67%
inhibition at 20 µM [4]: 30.3%
IC50 [6]: 7.7 µM
solubility [7]: > 100 mg/mL

C=C1CCC2C3C(CC[C@]12C)[C@@]1(C)CC[C@H](N)CC1[C@@H](O)[C@@H]3O (some centres unmarked) [Compound 89]
maximal concentration in plasma [1]: predictable and linear
maximal concentration in plasma [2]: predictable and linear
% inhibition of eosinophils [3, 8]: 57%
remains unchanged after 15 and even 30 minutes incubation with human S9 fractions ([5]; human, s9, 0.5 h, 10 μM, pH 7): 100%

CC1(C)CCC2=C1CCC1C2[C@@H](O)[C@H](O)C2C[C@@H](N)CC[C@]12C (some centres unmarked) [Compound 139]
% inhibition of eosinophils [3, 9]: 46%
% inhibition of lymphocytes [3, 9]: 19%
% inhibition of neutrophils [3, 9]: 42%
% inhibition of eosinophils [3, 10]: 41%
% inhibition of lymphocytes [3, 10]: 34%
% inhibition of neutrophils [3, 10]: 62%
% inhibition of eosinophils [3, 11]: 42%
% inhibition of lymphocytes [3, 11]: 56%
% inhibition of neutrophils [3, 11]: 63%
inhibition at 20 µM [4]: 26.3%
% remaining after 15 min ([5]; human, s9, 15 min, 10 μM, pH 7): 109 ± 26%
remains unchanged after 15 and even 30 minutes incubation with human S9 fractions ([5]; human, s9, 0.5 h, 10 μM, pH 7): 100%
% remaining after 30 min ([5]; human, s9, 30 min, 10 μM, pH 7): 100 ± 10%
IC50 [6]: 10.3 µM

CCC1(C)CCC2=C1CCC1C2C(O)C(O)C2CC(N)CCC21C.Cl (centres unmarked) [Compound 143]
remains unchanged after 15 and even 30 minutes incubation with human S9 fractions ([5]; 15 and 30 minutes, human S9 fractions): 100%
